From patent publication US20240059689A1, “PURINE DERIVATIVES AS ANTICANCER AGENTS” (Tango Therapeutics, Inc., priority 2021, published 2024)
pIC50: −log10 of the molar value.

How the values were obtained:
HCC1954 = test: Viability assay, BRCA1 WT cell line HCC1954; type: cell-based; settings: Homo sapiens, HCC1954, viability, read-out: HCC1954 rel IC50
Text: (§1) Table 1 also indicates IC50 values in a viability assay for a non-isogenic pair of BRCA1 mutant (column 5-MDA-MB-436) and BRCA1 WT (column 6—HCC1954) cell lines. These values indicate the effect of treatment with compound on cell survival.

MDA-MB-436 = test: Viability assay, BRCA1 mutant cell line MDA-MB-436; type: cell-based; settings: Homo sapiens, MDA-MB-436, viability, BRCA1 mutant MDA-MB-436; read-out: MDA-MB-436 rel IC50
Text: as §1

monoubiquitinated PCNA = test: AlphaLISA assay measuring monoubiquitinated PCNA in MDA-MB-436; type: cell-based; settings: Homo sapiens, MDA-MB-436, monoubiquitinated PCNA, read-out: Alpha Lisa IC50
Text: Table 1 also indicates IC50 values for exemplary compounds in an AlphaLISA assay measuring monoubiquitinated PCNA in a BRCA1 mutant cell line (MDA-MB-436; column 7).

USP1-UAF1 = USP1-UAF1 (Homo sapiens, UniProt O94782); test: Ubiquitin Rhodamine assay of USP1-UAF1 activity; type: biochemical
Procedure: Certain compounds of the disclosure were assessed for USP1-UAF1 activity in a Ubiquitin Rhodamine assay as described in Biology Example 1.

Chain of USP1-UAF1 (O94782 whole entry): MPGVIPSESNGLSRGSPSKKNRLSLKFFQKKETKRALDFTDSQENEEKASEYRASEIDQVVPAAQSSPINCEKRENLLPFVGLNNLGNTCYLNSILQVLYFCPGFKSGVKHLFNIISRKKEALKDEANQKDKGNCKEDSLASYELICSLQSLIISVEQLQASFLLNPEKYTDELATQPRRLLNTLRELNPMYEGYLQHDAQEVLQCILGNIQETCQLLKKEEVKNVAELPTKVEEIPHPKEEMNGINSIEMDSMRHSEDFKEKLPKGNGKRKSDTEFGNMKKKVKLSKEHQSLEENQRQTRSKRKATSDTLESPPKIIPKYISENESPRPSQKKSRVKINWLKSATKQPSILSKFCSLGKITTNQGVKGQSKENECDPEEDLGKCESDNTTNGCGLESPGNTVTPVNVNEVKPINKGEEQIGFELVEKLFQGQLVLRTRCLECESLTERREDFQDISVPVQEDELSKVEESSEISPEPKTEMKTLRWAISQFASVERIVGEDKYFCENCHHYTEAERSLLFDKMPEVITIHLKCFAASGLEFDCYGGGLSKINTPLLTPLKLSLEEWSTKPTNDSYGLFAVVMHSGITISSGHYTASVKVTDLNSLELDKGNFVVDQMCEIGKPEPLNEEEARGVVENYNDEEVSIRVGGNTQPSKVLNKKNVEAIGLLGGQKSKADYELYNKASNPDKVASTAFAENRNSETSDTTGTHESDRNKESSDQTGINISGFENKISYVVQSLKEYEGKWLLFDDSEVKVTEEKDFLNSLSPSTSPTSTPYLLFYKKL
Chain of USP1-UAF1 (Q8TAF3 whole entry partner): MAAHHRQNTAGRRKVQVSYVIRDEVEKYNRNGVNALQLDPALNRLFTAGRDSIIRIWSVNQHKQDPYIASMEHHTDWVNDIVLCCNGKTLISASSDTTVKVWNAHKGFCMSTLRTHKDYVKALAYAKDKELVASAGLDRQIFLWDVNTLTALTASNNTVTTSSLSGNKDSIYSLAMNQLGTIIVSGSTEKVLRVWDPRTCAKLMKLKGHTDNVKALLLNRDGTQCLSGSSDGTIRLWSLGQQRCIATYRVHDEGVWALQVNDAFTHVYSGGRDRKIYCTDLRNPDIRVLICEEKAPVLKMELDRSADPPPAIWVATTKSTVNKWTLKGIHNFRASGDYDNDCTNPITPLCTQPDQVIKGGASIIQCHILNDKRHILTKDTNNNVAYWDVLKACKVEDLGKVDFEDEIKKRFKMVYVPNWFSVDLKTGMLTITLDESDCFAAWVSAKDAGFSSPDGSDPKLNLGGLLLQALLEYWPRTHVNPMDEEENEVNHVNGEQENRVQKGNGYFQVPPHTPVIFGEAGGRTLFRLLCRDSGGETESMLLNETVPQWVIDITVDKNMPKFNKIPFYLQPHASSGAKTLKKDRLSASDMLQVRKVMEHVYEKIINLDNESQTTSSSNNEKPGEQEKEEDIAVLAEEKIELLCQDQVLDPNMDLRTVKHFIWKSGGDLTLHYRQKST

SMILES	pIC50 (HCC1954)	pIC50 (MDA-MB-436)	pIC50 (monoubiquitinated PCNA)	pIC50 (USP1-UAF1)
Cn1cc(C(F)(F)F)nc1-c1ccc(Cn2c(=N)n(C)c3cnc(-c4cc(F)ccc4OC(F)F)nc32)cc1 [Example T-039, 2-[2-(difluoromethoxy)-5-fluoro-phenyl]-7-methyl-9-[[4-[1-methyl-4-(trifluoromethyl)imidazol-2-yl]phenyl]methyl]purin-8-imine]	≤ 5.00	5.00 to 6.60	5.00 to 6.60	7.00 to 7.52
Cc1cc(-c2nc(C(F)(F)F)cn2C)ccc1Cn1c(=N)n(C)c2cnc(-c3ccccc3C(C)C)nc21 [Example T-040]	≤ 5.00	> 7.00	> 7.00	7.00 to 7.52
COc1ncnc(C2CC2)c1-c1ncc2c(n1)n(Cc1cc(F)c(-c3nc(C(F)(F)F)cn3C)cc1F)c(=N)n2C [Example T-044]	≤ 5.00	5.00 to 6.60	6.60 to 7.00	7.00 to 7.52
CC(C)c1ccccc1-c1ncc2c(n1)n(Cc1ccc(-c3nc(C(F)(F)F)cn3C)cc1Cl)c(=N)n2C [Example T-047]	≤ 5.00	5.00 to 6.60	6.60 to 7.00	7.00 to 7.52
Cn1cc(C(F)(F)F)nc1-c1ccc(Cn2c(=N)n(CC(F)F)c3cnc(-c4ccccc4C(F)(F)F)nc32)cc1 [Example T-049]	≤ 5.00	6.60 to 7.00	5.00 to 6.60	7.00 to 7.52
CC(C)n1cc(C(F)(F)F)nc1-c1ccc(Cn2c(=N)n(C)c3cnc(-c4cccnc4OC(F)F)nc32)cc1 [Example T-051, 2-[2-(difluoromethoxy)-3-pyridyl]-9-[[4-[1-isopropyl-4-(trifluoromethyl)imidazol-2-yl]phenyl]methyl]-7-methyl-purin-8-imine]	≤ 5.00	5.00 to 6.60	5.00 to 6.60	5.00 to 7.00
COc1nsc(OC)c1-c1ncc2c(n1)n(Cc1ccc(-c3nc(C(F)(F)F)cn3C)cc1)c(=N)n2C [Example T-052]	5.00 to 6.60	6.60 to 7.00	6.60 to 7.00	7.00 to 7.52
Cn1cc(C(F)(F)F)nc1-c1ccc(Cn2c(=N)n(C)c3cnc(-c4cccnc4OC(F)(F)F)nc32)cc1 [Example T-053, 7-methyl-9-[[4-[I-methyl-4-(trifluoromethyl)imidazol-2-yl]phenyl]methyl]-2-[2-(trifluoromethoxy)-3-pyridyl]purin-8-imine]	≤ 5.00	> 7.00	6.60 to 7.00	> 7.52
CC(C)c1ccccc1-c1ncc2c(n1)n(Cc1ccc(-c3nc(C(F)(F)F)cn3C)cc1)c(=N)n2CC(F)(F)F [Example T-054]	≤ 5.00	> 7.00	> 7.00	7.00 to 7.52
CCn1cc(C(F)(F)F)nc1-c1ccc(Cn2c(=N)n(C)c3cnc(-c4cccnc4OC)nc32)cc1 [Example T-057]	≤ 5.00	5.00 to 6.60	5.00 to 6.60	5.00 to 7.00
CC(C)c1ccccc1-c1ncc2c(n1)n(Cc1ccc(-c3nc(C(F)(F)F)c(Br)n3C)cc1)c(=N)n2C [Example T-059]	5.00 to 6.60	> 7.00	> 7.00	> 7.52
COc1ncccc1-c1ncc2c(n1)n(Cc1ccc(-c3nc(C(F)(F)F)cn3CC(F)F)cc1)c(=N)n2C [Example T-060]	≤ 5.00	≤ 5.00	5.00 to 6.60	5.00 to 7.00
COn1cc(C(F)(F)F)nc1-c1ccc(Cn2c(=N)n(C)c3cnc(-c4ccccc4C(C)C)nc32)cc1 [Example T-061]	5.00 to 6.60	6.60 to 7.00	6.60 to 7.00	> 7.52
CCn1cc(C(F)(F)F)nc1-c1ccc(Cn2c(=N)n(C)c3cnc(-c4ccccc4C(F)(F)F)nc32)cc1 [Example T-063, 9-(4-(1-ethyl-4-(trifluoromethyl)-1H-imidazol-2-yl)benzyl)-7-methyl-2-(2-(trifluoromethyl)phenyl)-7H-purin-8(9H)-imine]	≤ 5.00	6.60 to 7.00	6.60 to 7.00	7.00 to 7.52
Cn1cc(C(F)(F)F)nc1-c1ccc(Cn2c(=N)n(C)c3cnc(-c4cccnc4OCC(C)(C)C)nc32)cc1 [Example T-064]	≤ 5.00	5.00 to 6.60	5.00 to 6.60	5.00 to 7.00
COc1nccc(F)c1-c1ncc2c(n1)n(Cc1ccc(-c3nc(C(F)(F)F)cn3C)cc1)c(=N)n2C [Example T-065]	≤ 5.00	6.60 to 7.00	6.60 to 7.00	7.00 to 7.52
COCCn1cc(C(F)(F)F)nc1-c1ccc(Cn2c(=N)n(C)c3cnc(-c4ccccc4C(F)(F)F)nc32)cc1 [Example T-066]	≤ 5.00	5.00 to 6.60	5.00 to 6.60	5.00 to 7.00

SMILES	pIC50 (HCC1954)	pIC50 (MDA-MB-436)	pIC50 (monoubiquitinated PCNA)	pIC50 (USP1-UAF1)
Cn1cc(C(F)(F)F)nc1-c1ccc(Cn2c(=N)n(C)c3cnc(-c4c(Cl)cnn4C)nc32)cc1 [Example T-067]	≤ 5.00	5.00 to 6.60	5.00 to 6.60	7.00 to 7.52
COc1ncnc(C2CC2)c1-c1ncc2c(n1)n(Cc1ccc(-c3nc(C(F)(F)F)cn3CC(F)F)cc1)c(=N)n2C [Example T-069]	≤ 5.00	6.60 to 7.00	6.60 to 7.00	7.00 to 7.52
Cc1ccc(-c2ncc3c(n2)n(Cc2ccc(-c4nc(C(F)(F)F)cn4C)cc2)c(=N)n3C)c(C(C)C)c1 [Example T-070, 2-(2-isopropyl-4-methyl-phenyl)-7-methyl-9-[[4-[1-methyl-4-(trifluoromethyl)imidazol-2-yl]phenyl]methyl]purin-8-imine]	5.00 to 6.60	5.00 to 6.60	5.00 to 6.60	7.00 to 7.52
CC(C)c1cc(C#N)ccc1-c1ncc2c(n1)n(Cc1ccc(-c3nc(C(F)(F)F)cn3C)cc1)c(=N)n2C [Example T-071, 4-[8-imino-7-methyl-9-[[4-[1-methyl-4-(trifluoromethyl)imidazol-2-yl]phenyl]methyl]purin-2-yl]-3-isopropyl-benzonitrile]	5.00 to 6.60	6.60 to 7.00	> 7.00	7.00 to 7.52
CC(C)c1ncccc1-c1ncc2c(n1)n(Cc1ccc(-c3nc(C(F)(F)F)cn3C)cc1)c(=N)n2C [Example T-076, 2-(2-isopropyl-3-pyridyl)-7-methyl-9-[[4-[1-methyl-4-(trifluoromethyl)imidazol-2-yl]phenyl]methyl]purin-8-imine]	≤ 5.00	5.00 to 6.60	6.60 to 7.00	7.00 to 7.52
COc1ncnc(C2CC2)c1-c1ncc2c(n1)n(Cc1ccc(-n3nc(C(F)(F)F)cc3OC)cc1)c(=N)n2C [Example T-078]	≤ 5.00	> 7.00	> 7.00	> 7.52
Cn1cc(C(F)(F)F)nc1-c1ccc(Cn2c(=N)n(C)c3cnc(-c4cccnc4OCC(F)(F)F)nc32)cc1 [Example T-079, 7-methyl-9-[[4-[1-methyl-4-(trifluoromethyl)imidazol-2-yl]phenyl]methyl]-2-[2-(2,2,2-trifluoroethoxy)-3-pyridyl]purin-8-imine]	≤ 5.00	5.00 to 6.60	6.60 to 7.00	5.00 to 7.00
CC(C)c1ccccc1-c1ncc2c(n1)n(Cc1ccc(-c3nc(C(F)(F)F)cn3C)cc1O)c(=N)n2C [Example T-081]	≤ 5.00	6.60 to 7.00	> 7.00	> 7.52
Cn1cc(C(F)(F)F)nc1-c1ccc(Cn2c(=N)n(C)c3cnc(-c4cccnc4OC(F)F)nc32)cc1 [Example T-082, 2-[2-(difluoromethoxy)-3-pyridyl]-7-methyl-9-[[4-[1-methyl-4-(trifluoromethyl)imidazol-2-yl]phenyl]methyl]purin-8-imine]	≤ 5.00	> 7.00	> 7.00	> 7.52
CC(C)c1ccccc1-c1nc(C(F)(F)F)c2c(n1)n(Cc1ccc(-c3nc(C(F)(F)F)cn3C)cc1)c(=N)n2C [Example T-084]	5.00 to 6.60	6.60 to 7.00	6.60 to 7.00	> 7.52
COc1nc(C#N)ccc1-c1ncc2c(n1)n(Cc1ccc(-c3nc(C(F)(F)F)cn3C)cc1)c(=N)n2C [Example T-085]	5.00 to 6.60	5.00 to 6.60	5.00 to 6.60	5.00 to 7.00
Cn1cc(C(F)(F)F)nc1-c1ccc(Cn2c(=N)n(C)c3cnc(-c4ccccc4C4CC4)nc32)cc1 [Example T-087, 2-(2-cyclopropylphenyl)-7-methyl-9-[[4-[1-methyl-4-(trifluoromethyl)imidazol-2-yl]phenyl]methyl]purin-8-imine]	5.00 to 6.60	> 7.00	> 7.00	> 7.52
COc1ncccc1-c1ncc2c(n1)n(Cc1ccc(-c3nc(C(F)(F)F)cn3C)cc1)c(=N)n2C [Example T-090]	≤ 5.00	5.00 to 6.60	5.00 to 6.60	5.00 to 7.00
Cc1cc(Cn2c(=N)n(C)c3cnc(-c4ccccc4C(F)(F)F)nc32)ccc1-c1nc(C(F)(F)F)c[nH]1 [Example T-092]	5.00 to 6.60	5.00 to 6.60	5.00 to 6.60	7.00 to 7.52
COc1ncccc1-c1ncc2c(n1)n(Cc1ccc(-c3nc(C(F)(F)F)cn3CCF)cc1)c(=N)n2C [Example T-093]	≤ 5.00	5.00 to 6.60	5.00 to 6.60	5.00 to 7.00
CCOc1cc(C(F)(F)F)nn1-c1ccc(Cn2c(=N)n(C)c3cnc(-c4c(OC)ncnc4C4CC4)nc32)cc1 [Example T-094]	≤ 5.00	> 7.00	> 7.00	> 7.52
